# Experimental data reported in patent publication US20260216141A1, “NECROSIS INHIBITOR” (LINKGEVITY LIMITED, priority 2023, published 2026).
# Entries after “also recorded” stand apart in the source; their conditions may differ.
# What was measured:
# [1] = test system: Zebra fish (Danio rerio) liver; test: Zebra fish liver oxidative stress, PI/DAPI staining; format: cell-based; conditions: 2500 μM EGTA during stress, 7 min in 1 mM H2O2
# Description: Freshly culled zebrafish (Danio rerio) was dissected to quickly remove the liver which was then placed in PBS buffer and immediately stressed with 1 mM hydrogen peroxide for 7 min in with or without 2500 μM EGTA. The liver was then washed in PBS to stop the stress and stained with PI as well as DAPI to visualise all cell nuclei (including intact cell nuclei). The liver was then placed on a microscope slide under a coverslip and imaged.
# Moving to more complex animals, the intact liver from freshly culled and dissected zebrafish (Danio rerio) was placed in PBS buffer and immediately stressed with the toxin hydrogen peroxide with or without EGTA. The liver was then washed in PBS and stained with PI as well as DAPI to visualise all cell nuclei (including intact cell nuclei). The liver was then placed on a microscope slide under a coverslip and imaged, and the percentage of PI-stained cells scored (relative to all cells seen in the image, i.e., DAPI stained).
# [2] = test system: HEK293 suspension culture; test: HEK293 suspension culture oxidative stress, PI/DAPI staining; format: cell-based, human; conditions: 2500 μM EGTA 2 hrs prior and during stress, 20 sec 1M H2O2
# Description: HEK293 cells were detached using trypsin, washed and placed in cell culture medium. Cells were pre-treated for 2 hrs before and during stress with or without (control) EGTA 2500 μM. Cells were stressed by placing them in a 1M hydrogen peroxide solution (in cell culture medium) for 20 sec. Cells were then washed in cell culture medium and stained with PI as well as DAPI to visualise all cell nuclei (including intact cell nuclei), and placed on a microscope slide under a coverslip and imaged.
# For HEK293 suspension culture, cells were treated with a high dosage of EGTA 2 hrs prior to stress as well as during the stress. Stress was exposure to 1M hydrogen peroxide alongside untreated controls. Cells were then stained with DAPI and PI and Normarski and epifluoresence imaging was performed.
# [3] = test system: S. pombi; test: S. pombi oxidative stress, Propidium iodide staining; format: cell-based; conditions: EGTA 2500 μM during stress; 50 min 1 mM H2O2
# Description: A culture of S. pombi was exposed to 1 mM hydrogen peroxide for 50 min. Following this the yeast cells were washed in buffer and stained with the dye Propidium iodide (PI) and placed on a microscope slide under a coverslip and imaged using Nomarski and epifluorescence microscopy to identify the percentage of yeast cells that underwent necrosis. Treatment is EGTA 2500 μM during stress. Two repeats were performed.
# Bacteria, E. coli, and yeast, S. pombi, were exposed to toxin hydrogen peroxide stress (stress is for 50 min 1 mM H2O2) with or without high doses (2500 μM; c.f. FIG. 2) of the chelating agent EGTA (inhibitor of the predicted weak spot of loss of calcium ion homeostasis in the cytosol) delivered during the stress.
# For yeast, cells were stained with the standard viability dye Propidium iodide (PI) that only enters necrotic cells, placed on a microscope slide under a coverslip, and imaged using Nomarski and epifluorescence microscopy to identify the percentage of cells that undergo necrosis (all cells present could be counted using Nomarski microscopy).
# [4] = test system: C. elegans; test: C. elegans survival after cold, heat, oxidative and toxin stress; format: in vivo, Caenorhabditis elegans; conditions: EGTA 2500 μM in liposomes, 3 hrs prior to stress or 3 hrs post stress
# Description: C. elegans was maintained on nematode growth medium (NGM) agar plates seeded with Escherichia coli OP50, using standard culture methodologies (S. Brenner, 1974). A C. elegans (N2H) hermaphrodite stock was used as wild-type. Day 1 hermaphrodites were used in experiments and all maintenance and trials were conducted at 20° C. unless otherwise stated.
# Per trial, 100 animals were placed in 1.5 ml Eppendorf tubes ([…]) containing 100 μl M9 buffer, and then transferred to a −80° C. incubator for 1.5 min. Following the stress, animals were transferred to a 20° C. incubator and maintained as usual on OP50 NGM plates. • Heat stress
# Per trial, 100 animals were placed in a 37° C. incubator for 4.5 hrs on NGM plates. Following the stress, animals were transferred to a 20° C. incubator and maintained as usual on OP50 NGM plates. • Oxidative stress
# Per trial, 100 animals were transferred into 1.5 ml Eppendorf tubes (20 animals per tube) containing 300 μL of 2M hydrogen peroxide for 5 min. Following the stress, animals were transferred to a 20° C. incubator and maintained as usual on OP50 NGM plates. • Toxin stress
# Per trial, 100 animals were transferred into 1.5 ml Eppendorf tubes (20 animals per tube) containing 300 μL of 1.3% (v/v) tert-butylhydroperoxide (tBOOH) for 5 min. […]
# Next the model Caenorhabditis elegans was used and animal survival following stress was scored. […]
# [5] = test system: Hepg2s spheroids; format: cell-based
# Description: Media changes were on alternative days. […] DMSO controls were added on each plate.
# In some of the following Examples, human 3D cell culture was employed using liver Hepg2 cells. 3D cell culture is known to accurately replicate a cell's native environment. During embryonic development, cells aggregate and self-assemble into complex multi-cellular structures. The same aggregation process can likewise occur in in vitro culture systems if cell-cell cohesion is favoured over cell attachment to a substrate. The resulting 3D cell culture aggregates are known as spheroids. […] A standard method of spheroid formation in U-bottom low adhesion plates was used in the Examples herein.
# This is because, as the spheroids grow, only the peripheral cells obtain oxygen and nutrients from the cell culture medium. The inner cells die from cell death necrosis, with the formation of large necrotic cores (observable though use of standard live dead stains). Thus, necrotic core formation represents a naturally occurring hypoxic and nutrient stress. This resembles multiple forms of shock in humans where blood flow carrying nutrients and oxygen is disrupted to certain cells, tissues and/or organs.
smiles,measurement,setting,value
"O=C(O)CN(CCOCCOCCN(CC(=O)O)CC(=O)O)CC(=O)O [EGTA, ethylene glycol-bis(β-aminoethyl ether)-N,N,N′,N′-tetraacetic acid]",% of necrotic cells (PI stain) relative to all cells (DAPI stain),[1],necrosis cell death is prevented; also recorded: reduction in the percentage of necrotic (PI stained) cells
same,% of necrotic cells (PI stain) relative to all cells (DAPI stain),[2],necrosis cell death is prevented; also recorded: significantly reduced
same,S. pombi death / % of necrotic (PI stained) cells following oxidative stress,[3],death is prevented
same,C. elegans death / survival following stress,[4],death is prevented
same,dosage needed to suppress necrosis,"[5]; Hepg2s spheroids, day 7",2500 µM
same,toxicity at earlier time points,[5]; time points earlier than day 7,"some mild, but not statistically significant, toxicity"
